The values that follow come from PubChem BioAssay (NCI).

Among the test systems are MDA-MB-231 breast; MDA-MB-435; NCI-H226 lung; OVCAR-5 ovarian; RPMI-8226 leukemia; SK-MEL-2 melanoma; SK-MEL-28 melanoma; SNB-75 CNS; U251 CNS; EKVX NSCLC; SF-539 CNS.
Holding throughout (assay): growth of human tumour cells (NCI), 48 h

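Method: 48-hour compound exposure of cells in 96-well plates, five concentrations, linear interpolation of endpoints. TGI: concentration producing complete growth inhibition.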 Some results are limits rather than exact numbers.

Regarding `O=c1/c(=C/c2ccccn2)sc2nc3cc4c(cc3n12)OCCO4`, the TGI with MDA-MB-231 breast, in the assay with MDA-MB-435, in the assay with NCI-H226 lung, with OVCAR-5 ovarian, in the assay on RPMI-8226 leukemia and in the assay with SK-MEL-2 melanoma was above 100 µM throughout. The TGI in the assay on SK-MEL-28 melanoma, in the assay with SNB-75 CNS and in the assay on U251 CNS was above 100 µM in each case.

Regarding `CC(=O)[C@@]1(c2ccccc2)CC2(CCN(C)CC2)O[C@H]1C`, the TGI in the assay with EKVX NSCLC, in the assay on MDA-MB-231 breast, in the assay with MDA-MB-435, in the assay with NCI-H226 lung, in the assay with OVCAR-5 ovarian and with RPMI-8226 leukemia was above 100 µM each time. The TGI in the assay on SF-539 CNS, in the assay with SK-MEL-28 melanoma, in the assay on SNB-75 CNS and in the assay on U251 CNS was above 100 µM each time.

Consider `CC(=O)NC(C)(C)C1CCC(C)CC1` (stereo not drawn), for which the TGI in the assay on EKVX NSCLC, in the assay with MDA-MB-231 breast, in the assay on MDA-MB-435, with NCI-H226 lung, in the assay on OVCAR-5 ovarian and in the assay on RPMI-8226 leukemia was above 100 µM throughout. In addition, the TGI with SF-539 CNS, in the assay with SK-MEL-28 melanoma, in the assay on SNB-75 CNS and with U251 CNS was above 100 µM in each case.

In the case of `CCC(Nc1ncnc2nc[nH]c12)C(=O)O` (stereo not drawn), the TGI in the assay with EKVX NSCLC, in the assay with MDA-MB-231 breast, in the assay on MDA-MB-435, with NCI-H226 lung, with OVCAR-5 ovarian and in the assay with RPMI-8226 leukemia was above 100 µM in each case. In addition, the TGI with SK-MEL-2 melanoma, with SK-MEL-28 melanoma, in the assay with SNB-75 CNS and in the assay with U251 CNS was above 100 µM throughout.

For the compound `Cn1cc2c3ccccc3nc-2c2ccccc21`, the TGI amounted to 5.73 µM in the assay with MDA-MB-231 breast; 6.33 µM in the assay with MDA-MB-435; 6.84 µM in the assay on OVCAR-5 ovarian; 3.94 µM with RPMI-8226 leukemia; 3.66 µM with SF-539 CNS; 3.52 µM with SK-MEL-2 melanoma. For the same compound, the TGI in the assay with SK-MEL-28 melanoma stood at 6.43 µM; in the assay on SNB-75 CNS, 6.6 µM; with U251 CNS it was 6.51 µM.

In the case of `COc1ccc2[nH]c3c(c2c1)CC(=O)N1CCC[C@H](C1)CC31OCCCO1`, the TGI in the assay on EKVX NSCLC, in the assay on MDA-MB-231 breast, with MDA-MB-435, with NCI-H226 lung, in the assay with OVCAR-5 ovarian and in the assay with RPMI-8226 leukemia was above 100 µM in each case. Further, the TGI with SK-MEL-2 melanoma, with SK-MEL-28 melanoma, in the assay on SNB-75 CNS and with U251 CNS was above 100 µM in each case.

Turning to `CCNC(=S)NNC(=O)c1ccccc1Nc1ccccc1C(=O)NNC(=S)NCC`, the TGI in the assay with EKVX NSCLC, in the assay on MDA-MB-231 breast, in the assay with MDA-MB-435, in the assay with NCI-H226 lung, in the assay on OVCAR-5 ovarian and in the assay on RPMI-8226 leukemia was above 100 µM throughout. The TGI in the assay with SK-MEL-2 melanoma, in the assay on SK-MEL-28 melanoma, in the assay with SNB-75 CNS and in the assay with U251 CNS was above 100 µM throughout.

In the case of `Cc1cc(C)n(-c2nc(C)c(CCO)c(=O)[nH]2)n1`, the TGI with EKVX NSCLC, with MDA-MB-231 breast, with MDA-MB-435, with NCI-H226 lung, in the assay on OVCAR-5 ovarian and with RPMI-8226 leukemia was above 100 µM in each case. The TGI in the assay with SF-539 CNS, in the assay on SK-MEL-28 melanoma, with SNB-75 CNS and in the assay on U251 CNS was above 100 µM in each case.

On to `Cc1nc2ccc(NC3OCC(O)C(O)C3O)cc2c(=O)n1-c1ccccc1` (stereo not drawn), for which the TGI in the assay with EKVX NSCLC, with MDA-MB-231 breast, in the assay on MDA-MB-435, in the assay on NCI-H226 lung, in the assay on OVCAR-5 ovarian and with RPMI-8226 leukemia was above 100 µM in each case. The TGI in the assay on SK-MEL-2 melanoma, in the assay with SK-MEL-28 melanoma, in the assay on SNB-75 CNS and in the assay on U251 CNS was above 100 µM in each case.

Consider `CN(C)S(=O)(=O)c1nc(Cl)c2[nH]cnc2n1`, for which the TGI with EKVX NSCLC, with MDA-MB-231 breast, with MDA-MB-435, in the assay with NCI-H226 lung, in the assay on OVCAR-5 ovarian and in the assay on RPMI-8226 leukemia was above 100 µM in each case. Further, the TGI with SK-MEL-2 melanoma, in the assay on SK-MEL-28 melanoma, with SNB-75 CNS and with U251 CNS was above 100 µM in each case.

For `CCOC(=O)c1cc(C)nc2c1c(=O)n(-c1ccccc1)c(=O)n2CCCCN1CCN(c2ncccn2)CC1`, the TGI in the assay on EKVX NSCLC, in the assay on MDA-MB-231 breast, in the assay with MDA-MB-435, in the assay on NCI-H226 lung, in the assay with OVCAR-5 ovarian and with RPMI-8226 leukemia was above 100 µM each time. Also, the TGI in the assay on SK-MEL-2 melanoma, in the assay on SK-MEL-28 melanoma, with SNB-75 CNS and with U251 CNS was above 100 µM each time.
